Data reported in PMC5923171, “Novel Zinc-Attenuating Compounds as Potent Broad-Spectrum Antifungal Agents with In Vitro and In Vivo Efficacy” (Antimicrobial Agents and Chemotherapy, 2018).
≈ marks a conversion by molar mass, not a printed value. Like-named read-outs stand apart in the source and are kept apart here.

Columns and labels:
[1] = Human hepatocyte (HepG2) proliferation assay; type: cell-based; settings: human, HepG2 cells, XTT; for EC50 at 24 h: 24 h exposure; for EC50 at 72 h: 72 h exposure
Protocol: In each well of a 96-well tissue culture plate (GR-655180; Grenier), 10,000 human hepatocytes (HepG2) (85011430; […] Sigma]) supplemented with 2 mM L-[…]-020-1B; Biological Industries), 1% nonessential amino acids (XC-[…]/100; Biosera), and 10% fetal bovine serum (BI-04-007-1A; Biological Industries), and plates were incubated overnight at 37°C and 5% CO2. […] The plate was incubated for a further 24 h or 72 h at 37°C and 5% CO2. The medium was then replaced with 100 μl of freshly prepared 2,3-bis-(2-methoxy-4-nitro-5-sulfophenyl)-2H-tetrazolium-5-carboxanilide salt (XTT) sodium salt solution (0.5 mg/ml of XTT; […]; Sigma) in RPMI 1640 ([…]; Sigma-Aldrich) with 3.83 μg/ml of phenazine methosulfate ([…]; Sigma-Aldrich) and incubated 2 to 3 h at 37°C and 5% CO2 ([43]). The color reaction was measured on Victor X5 plate reader (Perkin-Elmer) at OD450, and the half-maximal effective concentration (EC50) was calculated. Tamoxifen (85256; Sigma) was used as a positive-control compound.

[2] = tested on: C. albicans BWP17; test: Zinbo-5 assay (intracellular zinc); type: cell-based, Candida albicans; settings: 9 μg/ml ZAC989, 7 μg/ml ZAC307 (25 μM), 15 μg/ml EDTA, 1.3 μg/ml TPEN; 1, 8 or 24 h
Protocol: C. albicans BWP17 was grown overnight in YPD medium at 30°C and 150 rpm. The cells were pelleted, washed in PBS buffer (D8537; Sigma) 3 times, and resuspended to an OD600 of 2.0. Two microliters of compound in DMSO was mixed with 100 μl of cell suspension and incubated statically for 1, 8, or 24 h at 30°C in a 96-well black plate. Thirty minutes before the end of the incubation period, 100 μl of 10 μM Zinbo-5 (sc-222425; Santa Cruz Biotechnology) in PBS buffer was added. […] The plate was then read on a plate reader (FLUOstar Optima; BMG Lab Technologies) with excitation at 355 nm and emission at 485 nm. The decrease in Zinbo-5 fluorescence was calculated relative to the untreated DMSO control.

[3] = tested on: C. albicans SC5314; test: Antifungal susceptibility testing (MIC); type: cell-based, Candida albicans; settings: at least 50% growth inhibition, RPMI, 24 h, 34°C
Protocol: Antifungal susceptibility testing was carried out as described previously ([38], [39]), with a few modifications. Briefly, for each yeast or mold growth inhibition assay, frozen stocks of yeast cells or spores were diluted to a final concentration of 0.5 × 10^5 to 2.5 × 10^5 CFU/ml in sterile water. ZAC989, ZAC307, and ZAC623 were dissolved in DMSO to 10 mM stocks from which half-log serial dilutions were prepared. Growth assays were subsequently performed by pipetting 3 μl of compound dissolved in DMSO (giving a final concentration of 1.5% DMSO), 100 μl of cell-spore suspension, and 97 μl of 2× RPMI medium (20.8 g/liter of RPMI 1640 medium, 69.06 g/liter of morpholinepropanesulfonic acid [MOPS], 36 g/liter of glucose) into a microtiter plate that was incubated for 24 h (yeasts) or 48 to 72 h (molds) at 34°C. Fungal growth was determined spectrophotometrically by optical density reading of each well at a wavelength of 492 nm on a Victor X5 (Perkin-Elmer) plate reader. […] Standard errors between repeated experiments were generally below 5%. The growth effect of exogenous addition of various divalent metals was evaluated by performing the antifungal susceptibility assay in the presence of 5 μM ZAC989 or ZAC307 and with increasing concentrations (0.003 to 50 μM) of ZnSO4, CuSO4, (NH4)2Fe(SO4)2, MgCl2, and CaCl2.

[4] = tested on: C. albicans; test: Fungal growth recovery after prolonged exposure (MFC); type: cell-based, Candida albicans; settings: for growth recovery after exposure: 5 days of exposure, then compound-free medium (EDTA: during compound incubation, 0.22 to 22 μg/ml)
[5] = Candida albicans, SC5314, 24 h, read-out: MIC

SMILES	EC50 at 24 h [1]	EC50 at 72 h [1]	Zinbo-5 fluorescence [2]	MIC [3, 5]	growth recovery after exposure [4]	MIC [3]	concentration above which exposed cells showed poor recovery ([4]; prolonged exposure)
O=C(O)CN(CCN(CC(=O)O)CC(=O)O)CC(=O)O [EDTA]	> 28 µg/mL	> 29 µg/mL	did not reduce the Zinbo-5 fluorescence	~0.05 µg/mL (≈ 0.171 µM)	resumed visible growth after 48 h of compound incubation	–	–
Cc1cc(O)n(-c2cc(N3CC[C@H](Oc4cnccc4C#N)C3)ncn2)n1 [ZAC989, 3-[(3S)-1-[6-(5-hydroxy-3-methyl-pyrazol-1-yl)pyrimidin-4-yl]pyrrolidin-3-yl]oxy-pyridine-4-carbonitrile]	> 28 µg/mL	6.9 ± 0.7 µg/mL (≈ 19 µM)	time-dependent decrease in Zinbo-5 fluorescence	0.4 µg/mL (≈ 1.1 µM)	resume normal growth	0.6 µg/mL (≈ 1.65 µM)	–
c1ccc(CN(CCN(Cc2ccccn2)Cc2ccccn2)Cc2ccccn2)nc1 [TPEN, N,N,N’,N’-tetrakis(2-pyridylmethyl)-ethylenediamine]	1.6 ± 0.2 µg/mL (≈ 3.77 µM)	1.4 ± 0.8 µg/mL (≈ 3.3 µM)	time-dependent decrease in Zinbo-5 fluorescence	~0.05 µg/mL (≈ 0.118 µM)	poor recovery	–	above 2 μg/ml
CN(C)c1cc(-n2nc(-c3ccccc3)cc2O)ncn1 [ZAC307, 2-[6-(dimethylamino)pyrimidin-4-yl]-5-phenyl-pyrazol-3-ol]	> 28 µg/mL	13.2 ± 0.8 µg/mL (≈ 46.9 µM)	decreased the Zinbo-5 fluorescence after only 1 h of incubation	0.4 µg/mL (≈ 1.42 µM)	resume normal growth	–	–
